Test results: publication PMC13576449, “Small-Molecule Activators of PRMT1: Discovery, SAR Analyses, and Proapoptotic Effects in Pancreatic Cancer Cells” (Journal of Medicinal Chemistry, 2026)

How the values were obtained:
[1] = target: T1, FLAG-tagged PRMT3 (Homo sapiens, UniProt O60678); assay: Fluorescence-based in vitro PRMT assay (F-PRMT assay), PRMT3; assay type: biochemical; details: for Experimental result (PRMT3): vs solvent control = 100%
T1 construct: The complete ORFs of human PRMT3 and PRMT6 were inserted; made in house; host or cells: Sf9 insect cells (baculovirus)
Source text: To evaluate the effects of the selected candidate molecules on the catalytic activity of type I enzymes, we employed a quantitative fluorescence-based in vitro PRMT activity (F-PRMT) assay using recombinant FLAG-tagged PRMT proteins expressed and affinity-purified from baculovirus-infected Sf9 cells (SI Figure S1, SI Figure S2A).
Human cell lines (PaTu8988T, PANC-1) were obtained from ATCC (American Type Culture Collection) and cultured in DMEM supplemented with 10% fetal calf serum (FCS, Gibco/BRL), 1% penicillin/streptomycin at 37 °C and 5% CO2. […] For PRMT1 inhibition, cells were treated with type I PRMT inhibitor MS023 hydrochloride (Biomol). For induction of genotoxic stress, cells were treated with gemcitabine (LC Laboratories). […] The following plasmids were used: pFASTBAC-FLAG-rat PRMT1, pFASTBAC-FLAG-mouse PRMT4, and pGEX-GAR. The complete ORFs of human PRMT3 and PRMT6 were inserted into the pFASTBAC HT-3xFLAG B vector via BamHI/HindIII and BamHI/XhoI sites, respectively.
For PRMT protein expression in insect cells, recombinant baculovirus (bacmid) was generated using the Bac-to-Bac baculovirus system (Invitrogen). Sf9 cells were transfected with bacmid DNA using X-tremeGENE HP DNA transfection reagent (Sigma-Aldrich) according to the manufacturer's instructions. After 3–5 days, supernatants were collected, filtered, and used to infect Sf9 cells to amplify the virus. After 2 rounds of virus amplification and estimation of the final P3 virus titer, the P3 virus (2–5 μL/10^6 cells) was applied for large-scale infection of 200 × 10^6 Sf9 cells in suspension culture at a density of 1 × 10^6 cells/mL. Cells were harvested 5–6 days post-infection by centrifugation at 500 g for 5 min at room temperature. Protein purification from baculovirus-infected Sf9 cells was performed as previously described. , Cells were lysed in BC buffer (20 mM HEPES pH 7.9, 250 mM NaCl, 10% (v/v) glycerin, 0.4 mM EDTA, 1 mM DTT) containing a protease inhibitor cocktail (Roche) by 3 freeze-thaw cycles. After centrifugation at 11,000 rpm (Sorval SS34 rotor) and 4 °C for 1 h, the supernatant (whole cell protein extract) was incubated with anti-FLAG M2 Affinity Gel (Cytiva) at 4 °C and under agitation for 4 h. Subsequently, beads were washed in BC buffer containing various NaCl concentrations (once in BC with 1 M NaCl, twice in BC with 500 mM NaCl, twice in BC with 250 mM NaCl and twice in BC with 100 mM NaCl). FLAG-tagged proteins were either maintained bead-bound as a 50% (v/v) slurry in BC buffer with 100 mM NaCl and stored at −80 °C or were eluted in the appropriate elution buffer (depending on the subsequent assay) containing 0.25 mg/mL 3xFLAG peptides (Sigma-Aldrich) at 4 °C for 30–45 min. To remove the FLAG-peptides from the eluate, dialysis was performed in elution buffer containing 10% (v/v) glycerol at 4 °C for 4–6 h using Slide-A-Lyzer Dialysis Devices (Thermo Fisher Scientific) according to the manufacturer’s recommendations.
In the first step, the fluorogenic substrate Nα-Benzoyl-L-arginine-7-amido-4-methylcoumarin (Bz-Arg-AMC, Sigma-Aldrich) undergoes methylation by PRMTs upon the addition of the cofactor SAM. In the second reaction step, trypsin cleaves the nonmethylated substrate, leading to the generation of the 7-amino-4-methylcoumarin product, which can be quantified by subsequent fluorescence measurement (excitation: 355 nm, emission: 460 nm). The first reaction was conducted with bead-bound PRMTs at a total volume of 100 μL. Each condition was performed as a technical triplicate to determine the mean and the standard deviation. […] For the negative controls, SAM was substituted with assay buffer. The incubation was continued at 37 °C and under agitation (1,000 rpm) for a duration of 2 h.

[2] = Tolerability, body weight monitoring of xenograft mice; details: female athymic nude mice, 150 mg/kg TR-07 daily, 10 mg/kg gemcitabine every second day, 2 weeks
[3] = target: T2, FLAG-tagged PRMT4 (Mus musculus, UniProt Q9WVG6); assay: Fluorescence-based in vitro PRMT assay (F-PRMT assay), PRMT4; assay type: biochemical; details: for Experimental result (PRMT4): vs solvent control = 100%
T2 construct: Full-length FLAG-tagged PRMT protein; made in house; host or cells: Sf9 insect cells (baculovirus)
T2 sequence (Q9WVG6 1-608): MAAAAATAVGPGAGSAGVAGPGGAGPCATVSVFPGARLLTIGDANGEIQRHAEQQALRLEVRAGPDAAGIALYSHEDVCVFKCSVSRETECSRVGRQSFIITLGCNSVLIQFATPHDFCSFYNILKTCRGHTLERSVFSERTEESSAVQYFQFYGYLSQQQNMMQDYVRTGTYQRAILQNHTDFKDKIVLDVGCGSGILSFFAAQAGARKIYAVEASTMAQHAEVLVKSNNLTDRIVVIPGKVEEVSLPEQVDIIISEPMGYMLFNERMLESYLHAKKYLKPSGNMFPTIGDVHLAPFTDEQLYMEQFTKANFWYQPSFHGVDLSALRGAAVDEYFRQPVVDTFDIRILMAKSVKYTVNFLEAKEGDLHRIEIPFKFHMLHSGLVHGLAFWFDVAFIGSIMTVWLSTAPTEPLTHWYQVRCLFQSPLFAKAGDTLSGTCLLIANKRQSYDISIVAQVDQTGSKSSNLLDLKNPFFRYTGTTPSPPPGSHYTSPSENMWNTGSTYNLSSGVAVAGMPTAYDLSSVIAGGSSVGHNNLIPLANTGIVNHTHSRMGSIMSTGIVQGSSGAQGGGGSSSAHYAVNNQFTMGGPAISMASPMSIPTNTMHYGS
Summary of the method: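 Baculovirus/Sf9-expressed FLAG-PRMTs (human PRMT3, PRMT6; mouse PRMT4), anti-FLAG purified and used bead-bound, methylated Bz-Arg-AMC with SAM for 2 h at 37 °C, 1,000 rpm. Technical triplicates; no-SAM negative controls.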

[4] = tested on: PANC-1 xenografts; assay: PDAC xenograft mouse model, tumor growth; assay type: in vivo; details: female athymic nude mice, intraperitoneal, 2 weeks; 150 mg/kg TR-07 daily, 10 mg/kg gemcitabine every second day; n = 5
[5] = Table 1, 100 μM compound, 2 μM PRMT, n = 3, racemates used

T1 sequence (O60678 whole entry): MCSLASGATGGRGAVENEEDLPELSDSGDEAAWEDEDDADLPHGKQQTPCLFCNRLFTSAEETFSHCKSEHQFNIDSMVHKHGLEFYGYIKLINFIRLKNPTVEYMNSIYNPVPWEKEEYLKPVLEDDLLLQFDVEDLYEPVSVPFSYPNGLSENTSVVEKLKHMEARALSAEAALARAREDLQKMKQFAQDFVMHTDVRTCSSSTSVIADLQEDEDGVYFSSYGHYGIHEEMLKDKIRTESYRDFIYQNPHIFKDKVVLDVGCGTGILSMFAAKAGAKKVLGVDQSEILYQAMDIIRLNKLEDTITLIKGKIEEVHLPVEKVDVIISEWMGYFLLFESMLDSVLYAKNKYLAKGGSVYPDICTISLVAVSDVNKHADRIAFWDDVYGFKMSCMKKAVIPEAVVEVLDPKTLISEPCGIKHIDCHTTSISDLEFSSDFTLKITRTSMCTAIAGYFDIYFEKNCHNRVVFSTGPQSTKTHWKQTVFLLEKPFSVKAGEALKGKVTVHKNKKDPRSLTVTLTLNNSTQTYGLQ

(Z)-2-(2-{[(1,3-Dioxo-2,3-dihydroisoquinolin-4(1H)-ylidene)methyl]amino}phenyl)-N,N-dimethylethan-1-aminium chloride [ICTR-059]
effect on PRMT3 activity (in words) ([1]; 100 μM compound): concomitant PRMT3 activation

CN(C)Cc1cccc(CN/C=C2\C(=O)NC(=O)c3ccccc32)c1.Cl [TR-07, (Z)-1-[3-({[(1,3-Dioxo-2,3-dihydroisoquinolin-4(1H)-lidene)methyl]amino}methyl)phenyl]-N,N-dimethylmethanaminium chloride]
tolerability (adverse or systemic toxic effects, body weights) [2]: well tolerated | effect on PRMT3 activity (in words) ([1]; 100 μM compound): neither positively nor negatively influencing | Experimental result (PRMT3) [1, 5]: PRMT3 n.e. (Compounds, which did not significantly affect the catalytic activity (less than ±6% change or not significant p-value), are marked with [drawing 8] (no effect)) | Experimental result (PRMT3) ([1]; Table S3, 100 µM compound, n≥3): n.e. (did not significantly affect the catalytic activity (less than ±6% change or not significant p-value), are marked with n.e. (no effect)) | effect on PRMT4 activity (in words) ([3]; 100 μM compound): neither positively nor negatively influencing | Experimental result (PRMT4) [3, 5]: PRMT4 n.e. (Compounds, which did not significantly affect the catalytic activity (less than ±6% change or not significant p-value), are marked with [drawing 8] (no effect)) | Experimental result (PRMT4) ([3]; Table S3, 100 µM compound, n≥3): n.e. (did not significantly affect the catalytic activity (less than ±6% change or not significant p-value), are marked with n.e. (no effect)) | tumor growth of PANC-1 xenografts [4]: significantly reduced the tumor growth compared to the control mice
